For 31 compounds, IC50 results are on record in US12247010B2, “Tubulin inhibitors” (LIN BIOSCIENCE PTY LTD., priority 2017, dated 2025).

The subject of this assay is U87MG cells. Briefly: Cytotoxicity assay (cell viability, CellTiter 96 Aqueous MTS). Type of assay: cell-based. Particulars: Homo sapiens, U-87 MG, 72 h, 72 hours incubation, starting concentration 50 uM, 9 point half log dilution, average where tested repeatedly. The essentials:
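U87MG cells plated at 7×10^3 cells/well overnight, then treated 72 h with 9-point half-log dilutions from a 50 uM starting concentration. Viability measured with CellTiter 96 Aqueous MTS; IC50 calculated from viability.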
`O=C(CCCc1ccc(-c2ccncc2)cc1)Nc1cccnc1` [Compound 202, N-(pyridin-3-yl)-4-(4-(pyridin-4-yl)phenyl)butanamide] returned an IC50 of more than 5000 nM. Next, `Cc1nn(C)cc1-c1ccc(CCCC(=O)Nc2cccnc2)cc1` [Compound 203, 4-(4-(1,3-dimethyl-1H-pyrazol-4-yl)phenyl)-N-(pyridin-3-yl)butanamide]: more than 5000 nM. `O=C(CCCc1ccc(-c2nnco2)cc1)Nc1cccnc1` [Compound 204, 4-(4-(1,3,4-oxadiazol-2-yl)phenyl)-N-(pyridin-3-yl)butanamide] came in with a half-inhibitory concentration (IC50) of 1000 to 5000 nM. `O=C(CCCc1ccc(-c2cnc(N3CCOCC3)nc2)cc1)Nc1cccnc1` [Compound 205, 4-(4-(2-morpholinopyrimidin-5-yl)phenyl)-N-(pyridin-3-yl)butanamide] returned a 50% inhibitory concentration (IC50) of more than 5000 nM.

`O=C(CCCc1ccc(-c2ccc3[nH]ncc3c2)cc1)Nc1cccnc1` [Compound 206, 4-(4-(1H-indazol-5-yl)phenyl)-N-(pyridin-3-yl)butanamide] gave a concentration for half-maximal inhibition (IC50) of less than 500 nM. On to `O=C(CCCc1ccc(-c2ccc3[nH]c(=O)oc3c2)cc1)Nc1cccnc1` [Compound 208, 4-(4-(2-oxo-2,3-dihydrobenzo[d]floxazol-6-yl)phenyl)-N-(pyridin-3-yl)butanamide], for which the 50% inhibitory concentration (IC50) was in the range of 1000 to 5000 nM. Next, `O=C(CCCc1ccc(-c2cc3cn[nH]c3cc2F)cc1)Nc1cccnc1` [Compound 209, 4-(4-(6-fluoro-1H-indazol-5-yl)phenyl)-N-(pyridin-3-yl)butanamide]: less than 500 nM; `O=C(CCCc1ccc(-c2cnc3[nH]ncc3c2)cc1)Nc1cccnc1` [Compound 210, 4-(4-(1H-pyrazolo[3,4-b]pyridin-5-yl)phenyl)-N-(pyridin-3-yl)butanamide]: less than 500 nM; `O=C(CCCc1ccc(-c2cnc3c(c2)CCC(=O)N3)cc1)Nc1cccnc1` [Compound 211, 4-(4-(7-oxo-5,6,7,8-tetrahydro-1,8-naphthyridin-3-yl)phenyl)-N-(pyridin-3-yl)butanamide]: 1000 to 5000 nM. In the case of `O=C(CCCc1ccc(-c2ccc3[nH]ccc3c2)cc1)Nc1cccnc1` [Compound 213, 4-(4-(1H-indol-5-yl)phenyl)-N-(pyridin-3-yl)butanamide], the concentration for half-maximal inhibition (IC50) was less than 500 nM.

The compound `Cc1nn(C)c(C)c1-c1ccc(CCCC(=O)Nc2cccnc2)cc1` [Compound 216, N-(pyridin-3-yl)-4-(4-(1,3,5-trimethyl-1H-pyrazol-4-yl)phenyl)butanamide] displayed a 50% inhibitory concentration (IC50) of more than 5000 nM. Next, `O=C(CCCc1ccc(-c2cscn2)cc1)Nc1cccnc1` [Compound 217, N-(pyridin-3-yl)-4-(4-(thiazol-4-yl)phenyl)butanamide]: more than 5000 nM; `CCOc1cccc(-c2ccc(CCCC(=O)Nc3cccnc3)cc2)c1F` [Compound 218, 4-(3′-ethoxy-2′-fluoro-[1,1′-biphenyl]-4-yl)-N-(pyridin-3-yl)butanamide]: less than 500 nM. As for `Cc1cccc(-c2ccc(CCCC(=O)Nc3cccnc3)cc2)c1F` [Compound 219, 4-(2′-fluoro-3′-methyl-[1,1′-biphenyl]-4-yl)-N-(pyridin-3-yl)butanamide], the half-maximal inhibitory concentration (IC50) is less than 500 nM. Next, `O=C(CCCc1ccc(-c2cccc(C(F)(F)F)c2F)cc1)Nc1cccnc1` [Compound 220, 4-(2′-fluoro-3′-(trifluoromethyl)-[1,1′-biphenyl]-4-yl)-N-(pyridin-3-yl)butanamide]: less than 500 nM. `N#Cc1cccc(-c2ccc(CCCC(=O)Nc3cccnc3)cc2)c1F` [Compound 221, 4-(3′-cyano-2′-fluoro-[1,1′-biphenyl]-4-yl)-N-(pyridin-3-yl)butanamide] registered a half-inhibitory concentration (IC50) of 1000 to 5000 nM. `O=C(CCCc1ccc(-c2ccc3c(c2)CC(=O)N3)cc1)Nc1cccnc1` [Compound 222, 4-(4-(2-oxoindolin-5-yl)phenyl)-N-(pyridin-3-yl)butanamide] displayed an IC50 of less than 500 nM.

Compound `O=C(CCCc1ccc(-c2ccc3[nH]cnc(=O)c3c2)cc1)Nc1cccnc1` [Compound 223, 4-(4-(4-oxo-1,4-dihydroquinazolin-6-yl)phenyl)-N-(pyridin-3-yl)butanamide] had an IC50 of more than 5000 nM. With `O=C(CCCc1ccc(-c2ccc3c(c2)OCC(=O)N3)cc1)Nc1cccnc1` [Compound 224, 4-(4-(3-oxo-3,4-dihydro-2H-benzo[b][1,4]oxazin-7-triazoloyl)phenyl)-N-(pyridin-3-yl)butanamide] the figure was less than 500 nM. In the case of `O=C(CCCc1ccc(-c2cccc(Cl)c2F)cc1)Nc1cccnc1` [Compound 225, 4-(3′-chloro-2′-fluoro-[1,1′-biphenyl]-4-yl)-N-(pyridin-3-yl)butanamide], the 50% inhibitory concentration (IC50) was more than 5000 nM. Next, `Cc1cc(C(=O)NCCCc2ccc(-c3ccc4c(cnn4C)c3)cc2)no1` [Compound 227, 5-methyl-N-(3-(4-(1-methyl-1H-indazol-5-yl)phenyl)propyl)isoxazole-3-carboxamide]: less than 500 nM; `Cc1cc(C(=O)NCCCc2ccc(-c3ccc4[nH]ncc4c3C)cc2)n(C)n1` [Compound 228, 1,3-dimethyl-N-(3-(4-(4-methyl-1H-indazol-5-yl)phenyl)propyl)-1H-pyrazole-5-carboxamide]: less than 500 nM. Next, `Cc1ccc(C(=O)NCCCc2ccc(-c3cnc4[nH]ccc4c3)cc2)cn1` [Compound 229, N-(3-(4-(1H-pyrrolo[2,3-b]pyridin-5-yl)phenyl)propyl)-6-methylnicotinamide]: less than 500 nM; `Cn1ncc2cc(-c3ccc(CCCNC(=O)c4cncnc4)cc3)ccc21` [Compound 231, N-(3-(4-(1-methyl-1H-indazol-5-yl)phenyl)propyl)pyrimidine-5-carboxamide]: less than 500 nM. In turn, `COc1cccc(-c2ccc(CCCNC(=O)c3ccc(C)nc3)cc2)c1F` [Compound 234, N-(3-(2′-fluoro-3′-methoxy-[1,1′-biphenyl]-4-yl)propyl)-6-methylnicotinamide] returned an IC50 of less than 500 nM. Compound `Cc1cc(C(=O)NCCCc2ccc(-c3cnc4[nH]ccc4c3)cc2)no1` [Compound 235, N-(3-(4-(1H-pyrrolo[2,3-b]pyridin-5-yl)phenyl)propyl)-5-methylisoxazole-3-carboxamide] returned a half-maximal inhibitory concentration (IC50) of less than 500 nM. `Cc1cc(C(=O)NCCCc2ccc(-c3ccc4c(cnn4C)c3)cc2)n(C)n1` [Compound 236, 1,3-dimethyl-N-(3-(4-(1-methyl-1H-indazol-5-yl)phenyl)propyl)-1H-pyrazole-5-carboxamide] displayed an IC50 of less than 500 nM. With `Cc1ccc(C(=O)NCCCc2ccc(-c3ccc4ncccc4c3)cc2)cn1` [Compound 237, 6-methyl-N-(3-(4-(quinolin-6-yl)phenyl)propyl)nicotinamide] the figure was less than 500 nM; with `COc1cccc(-c2ccc(CCCNC(=O)c3cc(C)nn3C)cc2)c1F` [Compound 238, N-(3-(2′-fluoro-3′-methoxy-[1,1′-biphenyl]-4-yl)propyl)-1,3-dimethyl-1H-pyrazole-5-carboxamide], 501 to 1000 nM. `COc1cccc(-c2ccc(CCCNC(=O)c3cc(C)on3)cc2)c1F` [Compound 240, N-(3-(2′-fluoro-3′-methoxy-[1,1′-biphenyl]-4-yl)propyl)-5-methylisoxazole-3-carboxamide] yielded an IC50 of 501 to 1000 nM.

The compound `Cc1ncccc1C(=O)NCCCc1ccc(-c2ccc3c(cnn3C)c2)cc1` [Compound 241, 2-methyl-N-(3-(4-(1-methyl-1H-indazol-5-yl)phenyl)propyl)nicotinamide] had an IC50 of less than 500 nM.

The IC50 is the concentration that gives 50% inhibition. High values mean a need for much substance, low ones inhibition by little substance.
